Reference: patent US8946200B2, “Pharmaceutically active nanosuspensions” (Southwest Research Institute, priority 2006, dated 2015)

Tests used:
[1] = Particle size distribution of the nanoparticle suspension (Beckman Coulter PCS Submicron Particle Size Analyzer); format: physicochemical; settings: suspension of TCO in PBS pH 7.4, 0.5 mg/mL (FIG. 1)
Description: The particle size of the pharmaceutically active compound in the nanosuspension may be in the range of 100 nm to 1000 nm, including all values and increments therein, such as in the range of 250 nm to 1,000 nm, etc. Illustrated in FIG. 1 is an exemplary embodiment of a numerical particle size distribution of suspension of TCO in PBS having a pH of 7.4 and at a concentration of 0.5 mg/mL. […] In addition, the highest relative number percent of particles fall in the range of about 450-525 nm. Such particle size determination may be accomplished on a Beckman Coulter PCS Submicron Particle Size Analyzer. Accordingly, a nanosuspension herein may be understood as any liquid medium containing pharmaceutically active compounds having particles with a size of less than or equal to about 1000 nm.
(§1) A solution of TCO (1 mg) in hexafluoroisopropanol (HFIP) (0.5 mL) was prepared and added slowly into a magnetically stirred into phosphate buffered saline (PBS) (2 mL) having a pH of 7.4. The mixture was stirred uncovered in a fume hood for up to 24 hours. FIG. 1 illustrates the particle size distribution of suspension of TCO in pH 7.4 PBS at 0.5 mg/mL concentration. […] The clear nanoparticle suspension was further concentrated in a vacuum oven to about 1.5 mg/mL.

[2] = Concentration of the nanosuspension and appearance / physical stability; format: physicochemical
Description: as §1
A solution of TCO (1 mg) in hexafluoroisopropanol (0.5 mL) was prepared and added slowly into a magnetically stirred deionized water (2 mL). The mixture was stirred uncovered in a fume hood for 3 hours and further concentrated in a vacuum oven. The nanoparticle suspension in deionized water, however, could only be concentrated to about 0.6 mg/mL of concentration before growing micron-sized crystals.

Substance: triamcinolone [TCO]
- particle size range with the highest relative number percent of particles [1]: 450-525 nm
- appearance of nanosuspension ([2]; 1.0 mg/ML, precipitating 2 mg/0.5 mL TCO/HFIP into 2 mL PBS): cloudy solution
- concentration to which the clear nanoparticle suspension was further concentrated ([2]; PBS pH 7.4, 1 mg TCO/0.5 mL HFIP into 2 mL PBS, vacuum oven): about 1.5 mg/mL
- concentration reached before growing micron-sized crystals ([2]; deionized water, 1 mg TCO/0.5 mL HFIP into 2 mL water, vacuum oven): about 0.6 mg/mL
